Assay results reported in US20230174507A1, “IMIDAZOLE 3-OXIDE DERIVATIVE BASED ACSS2 INHIBITORS AND METHODS OF USE THEREOF” (METABOMED LTD., priority 2020, published 2023).

Experiments:
[1] = biological target: T1, human ACSS2 protein (Homo sapiens, UniProt Q9NR19); assay: ACSS2 cell-free activity assay (pyrophosphatase-coupled, Biomol green); details: 10 nM human ACSS2, 90 minutes at 37 C, absorbance at 620 nm; read-out: ACSS2 Biochemical IC50
T1 construct: purchased OriGene Technologies, Inc
Experimental: ACSS2 Cell-Free Activity Assay (Cell-Free IC50)
(§1) The assay is based on a coupling reaction with Pyrophosphatase: ACSS2 is converting ATP+CoA+Acetate=>AMP+pyrophosphate+Acetyl-CoA (Ac-CoA). Pyrophosphatase converts pyrophosphate, a product of the ACSS2 reaction, to phosphate which can be detected by measuring the absorbance at 620 nm after incubation with the Biomol green reagent (Enzo life Science, BML-AK111).
(§2) Cell Free IC50 Determination:
(§3) 10 nM of human ACSS2 protein (OriGene Technologies, Inc) was incubated for 90 minutes at 37 C with various compounds' concentrations in a reaction containing 50 mM Hepes pH 7.5, 10 mM DTT, 90 mM KCl, 0.006% Tween-20, 0.1 mg/ml BSA, 2 mM MgCl2, 10 μM CoA, 5 mM NaAc, 300 μM ATP and 0.5 U/ml Pyrophosphatase (Sigma). At the end of the reaction, Biomol Green was added for 30 minutes at RT and the activity was measured by reading the absorbance at 620 nm. IC50 values were calculated using non-linear regression curve fit with 0% and 100% constrains (CDD Vault, Collaborative Drug Discovery, Inc.).

[2] = biological target: T2, human ACSS1 protein (Homo sapiens, UniProt Q9NUB1); assay: ACSS1 cell-free activity assay (pyrophosphatase-coupled, Biomol green); format: biochemical; details: 5 nM human ACSS1, 30 minutes at room temperature, absorbance at 620 nm
T2 construct: purchased MyBioSource
T2 sequence (Q9NUB1 38-689): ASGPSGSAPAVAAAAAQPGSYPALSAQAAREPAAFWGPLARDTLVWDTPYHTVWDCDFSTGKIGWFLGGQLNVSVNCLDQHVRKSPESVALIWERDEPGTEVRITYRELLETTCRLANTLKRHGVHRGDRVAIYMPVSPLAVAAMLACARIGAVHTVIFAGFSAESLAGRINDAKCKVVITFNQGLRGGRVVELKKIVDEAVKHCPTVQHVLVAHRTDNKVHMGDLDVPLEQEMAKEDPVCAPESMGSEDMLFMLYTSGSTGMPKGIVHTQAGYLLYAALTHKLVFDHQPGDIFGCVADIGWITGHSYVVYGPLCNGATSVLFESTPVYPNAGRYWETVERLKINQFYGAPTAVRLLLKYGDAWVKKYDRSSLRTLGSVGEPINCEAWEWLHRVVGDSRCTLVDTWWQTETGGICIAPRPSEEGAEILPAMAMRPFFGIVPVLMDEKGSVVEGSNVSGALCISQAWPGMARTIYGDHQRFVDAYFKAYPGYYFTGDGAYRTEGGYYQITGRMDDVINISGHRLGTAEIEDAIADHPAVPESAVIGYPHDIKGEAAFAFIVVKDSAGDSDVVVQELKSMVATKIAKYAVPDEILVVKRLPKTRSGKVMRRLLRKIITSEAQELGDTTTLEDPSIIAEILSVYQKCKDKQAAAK
Experimental: ACSS1 Cell-Free Activity Assay (Cell-Free IC50)
as §1, with “ACSS1” for “ACSS2”
as §2
as §3, with “5 nM” for “10 nM”, “human ACSS1” for “human ACSS2”, “protein (MyBioSource)” for “protein (OriGene Technologies, Inc)”, “for 30” for “for 90”, “at room temperature” for “at 37 C”, “MgCl2, 15” for “MgCl2, 10”

[3] = biological target: T3, ACSS2 in MDA-MB-468 cells (Homo sapiens, UniProt Q9NR19); assay: Cellular fatty-acid IC50: 13C-acetate incorporation into fatty acids (palmitate), LC-MS; format: cell-based; details: hypoxic conditions (1% O2), 75% charcoal stripped serum, 5 hours, 13C-acetate into palmitate, read-out: Cellular Fatty-acid IC50 High Serum MDA468
T3 construct: endogenous in cells; host or cells: MDA-MB-468 cells, hypoxia (1% O2)
Experimental: Cellular Fatty-Acid IC50 Determination:
The cellular activity of ACSS2 was measured in MDA-MB-468 cells under hypoxic conditions by tracing the incorporation of labelled carbons from ^13C-acetate into newly synthesized fatty acids. The assay was performed using 75% charcoal stripped serum (high serum conditions).
MDA-MB-468 cells were seeded in 12-well plates (0.35×10^6 cells per well) in plating medium (Dulbecco's Modified Eagle Medium containing 25 mM D-glucose, 1 mM sodium pyruvate, 10% v/v fetal bovine serum, and 2 mM glutamine) and incubated for 24 hours under hypoxic conditions (1% O2).
The next day, tracing medium containing DMEM (01-057-1A) containing 75% charcoal stripped serum (Biological industries 04-201-1A), 3.5 μg/mL Biotin (Sigma-Aldrich B4639), 1 mM Pyruvate, 5.5 mM Glucose, 0.65 mM Glutamine and 0.5 mM ^13C-Acetate (Sigma-Aldrich #282014) with serial dilutions of the compounds in the range of 0.000512-1000 nM were prepared. The plating medium was replaced with 1 mL tracing medium plus compounds and the cells were incubated for 5 hours under hypoxic conditions (1% O2). Plating medium in control wells (without cells or without compounds) was replaced with 1 mL tracing medium containing 0.01% v/v DMSO.
The level of ^13C-acetate incorporation into fatty acids (palmitate) was measured by LC-MS analysis and IC50 as described below:
Sample Preparation for LC-MS
• a) Cells were washed twice with cold phosphate buffered saline (PBS), scraped into 0.5 mL EDTA pH 8.0, and transferred into 1.1 mL V-shaped HPLC glass tubes. • b) The cell suspensions were centrifuged for 5 minutes at 400×g, 4° C. and the supernatants were removed. • c) Cell pellets were frozen at −80° C.
• d) Cell pellets were resuspended in 0.2 mL of 80% v/v ethanol in water containing 0.02 M NaOH in 1.1 ml glass (v-bottom) HPLC vials. • e) The vials were closed tight and incubated at 66° C. for 60 minutes. • f) Acetonitrile containing 2% v/v formic acid (150 μL) was added to each vial and the mixtures were transferred to Eppendorf tubes for centrifugation at 17 000×g for 20 minutes. • g) Supernatants were transferred to LC-MS vials.
The relative palmitate concentration was measured by LC-MS in reconstructed selected ion monitoring (RSIM) mode and negative ion mode. Samples were analyzed on a Phenomenex Kinetex 2.6 μm XB-C18 150×2.1 mm column at 45° C. (0.4 mL/minute flow rate) using: • a) A gradient from 15% A/85% C to 100% C for 0 to 2 minutes (A: water containing 5% v/v acetonitrile, 10 mM ammonium acetate, and 10 mM acetic acid; C: a mixture of 50% v/v acetonitrile and 50% v/v methanol). • b) Isocratic flow (100% C) for 2 to 5 minutes. • c) Equilibration in isocratic conditions (15% A/85% C) for 5 to 8 minutes.
Palmitate was eluted at approximately 3.4 minutes.
The percent inhibition was calculated relative to the sample without compound and after background deduction. IC50 values were calculated using non-linear regression curve fit analysis with 0% and 100% constraints (CDD Vault, Collaborative Drug Discovery, Inc. or GraphPad Prism).
The inhibitory activities of each compound against ACSS2 in MDA-MB-468 cells under high serum conditions, as determined by ^13C-acetate incorporation into fatty acids (palmitate), are presented in Table 2.

T3 sequence (Q9NR19 whole entry): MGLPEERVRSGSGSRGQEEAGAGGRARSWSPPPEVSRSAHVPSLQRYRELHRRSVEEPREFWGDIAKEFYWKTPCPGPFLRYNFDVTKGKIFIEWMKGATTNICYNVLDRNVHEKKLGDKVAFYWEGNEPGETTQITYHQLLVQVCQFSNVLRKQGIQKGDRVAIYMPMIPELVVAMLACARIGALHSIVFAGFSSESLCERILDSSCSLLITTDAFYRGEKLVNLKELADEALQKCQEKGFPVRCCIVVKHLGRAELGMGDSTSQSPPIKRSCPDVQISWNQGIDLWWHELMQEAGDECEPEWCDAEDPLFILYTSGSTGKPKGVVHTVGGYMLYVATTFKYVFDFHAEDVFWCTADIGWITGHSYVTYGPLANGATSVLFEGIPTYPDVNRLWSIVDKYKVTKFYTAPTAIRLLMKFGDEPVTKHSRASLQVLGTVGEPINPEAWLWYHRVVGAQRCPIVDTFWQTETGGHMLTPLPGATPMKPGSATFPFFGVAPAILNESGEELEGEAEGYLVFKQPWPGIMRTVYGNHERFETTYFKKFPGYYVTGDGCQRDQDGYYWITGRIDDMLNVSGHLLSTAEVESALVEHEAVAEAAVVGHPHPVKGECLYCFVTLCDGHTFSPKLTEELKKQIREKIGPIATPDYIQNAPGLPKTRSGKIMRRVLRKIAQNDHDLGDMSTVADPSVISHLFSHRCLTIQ
T1 sequence (Q9NR19 whole entry): as above

## COc1cc(F)c(-c2[nH]c(C)c(C(=O)Nc3cccc(C(F)(F)C4CC4)c3)[n+]2[O-])cc1-c1c(C)cccc1C [Compound 137]
[1]
  IC50: < 1 nM
[2]
  ACSS1 Biochemical IC50 (nM): Inactive
[3]
  IC50: > 50 nM

## CCC(F)(F)c1cccc(NC(=O)c2c(C)[nH]c(-c3cccc(-c4c(C)cccc4C)n3)[n+]2[O-])c1 [Compound 111, 4-((3-(1,1-difluoropropyl)phenyl)carbamoyl)-2-(6-(2,6-dimethylphenyl)pyridin-2-yl)-5-methyl-1H-imidazole 3-oxide]
[1]
  IC50: < 1 nM
[2]
  ACSS1 Biochemical IC50 (nM): Inactive
[3]
  IC50: > 50 nM

## CNS(=O)(=O)c1cccc(NC(=O)c2c(C)[nH]c(-c3ccc(OC)c(-c4c(C)cccc4C)c3)[n+]2[O-])c1 [Compound 187, 2-(6-methoxy-2′,6′-dimethyl-[1,1′-biphenyl]-3-yl)-5-methyl-4-((3-(N-methylsulfamoyl)phenyl)carbamoyl)-1H-imidazole 3-oxide]
[1]
  IC50: < 1 nM
[2]
  ACSS1 Biochemical IC50 (nM): Inactive
[3]
  IC50: 20 to 50 nM

## CCC(F)(F)c1cccc(NC(=O)c2c(C)[nH]c(-c3ccc(OC)cc3)[n+]2[O-])c1 [Compound 101, 4-((3-(1,1-difluoropropyl)phenyl)carbamoyl)-2-(4-methoxyphenyl)-5-methyl-1H-imidazole 3-oxide]
[2]
  ACSS1 Biochemical IC50 (nM): Inactive
[3]
  IC50: 20 to 50 nM

## CCC(F)(F)c1cccc(NC(=O)c2c(C)[nH]c(-c3ccc(OC)c(-c4ncccc4C)c3)[n+]2[O-])c1 [Compound 100, 4-((3-(1,1-difluoropropyl)phenyl)carbamoyl)-2-(4-methoxy-3-(3-methylpyridin-2-yl)phenyl)-5-methyl-1H-imidazole 3-oxide]
[2]
  ACSS1 Biochemical IC50 (nM): Inactive
[3]
  IC50: < 20 nM

## Cc1cccc(C)c1-c1cc(-c2ccccc2)cc(-c2[nH]c(C)c(C(=O)Nc3cccc(C(F)(F)C4CC4)c3)[n+]2[O-])c1 [Compound 133, 4-((3-(cyclopropyldifluoromethyl)phenyl)carbamoyl)-2-(2,6-dimethyl-[1,1′:3′,1″-terphenyl]-5′-yl)-5-methyl-1H-imidazole 3-oxide]
[1]
  IC50: 1 to 30 nM
[2]
  ACSS1 Biochemical IC50 (nM): Inactive

## COc1ccc(-c2[nH]c(C)c(C(=O)Nc3cccc(C(=O)N4CCCCC4)c3)[n+]2[O-])cc1-c1c(C)cccc1C [Compound 139, 2-(6-methoxy-2′,6′-dimethyl-[1,1′-biphenyl]-3-yl)-5-methyl-4-((3-(piperidine-1-carbonyl)phenyl)carbamoyl)-1H-imidazole 3-oxide]
[1]
  IC50: > 30 nM
[2]
  ACSS1 Biochemical IC50 (nM): Inactive

## COc1ccc(-c2[nH]c(C)c(C(=O)Nc3cccc(C(O)(O)C(F)(F)F)c3)[n+]2[O-])cc1-c1c(C)cccc1C [Compound 195, 2-(6-methoxy-2′,6′-dimethyl-[1,1′-biphenyl]-3-yl)-5-methyl-4-((3-(2,2,2-trifluoro-1,1-dihydroxyethyl)phenyl)carbamoyl)-1H-imidazole 3-oxide]
[1]
  IC50: > 30 nM
[2]
  ACSS1 Biochemical IC50 (nM): Inactive

## C/C=C/c1cc(C)c(-c2cc(-c3[nH]c(C)c(C(=O)Nc4cccc(C(F)(F)CC)c4)[n+]3[O-])ccc2OC)c(C)c1 [Compound 159, (E)-4-((3-(1,1-difluoropropyl)phenyl)carbamoyl)-2-(6-methoxy-2′,6′-dimethyl-4′-(prop-1-en-1-yl)-[1,1′-biphenyl]-3-yl)-5-methyl-1H-imidazole 3-oxide]
[1]
  IC50: 1 to 30 nM
[2]
  ACSS1 Biochemical IC50 (nM): Inactive

## CCC(F)(F)c1cccc(NC(=O)c2c(C)[nH]c(-c3ccc(OC)c(-c4c(C(F)(F)F)cccc4C(F)(F)F)c3)[n+]2[O-])c1 [Compound 128, 4-((3-(1,1-difluoropropyl)phenyl)carbamoyl)-2-(6-methoxy-2′,6′-bis(trifluoromethyl)-[1,1′-biphenyl]-3-yl)-5-methyl-1H-imidazole 3-oxide]
[1]
  IC50: 1 to 30 nM
[2]
  ACSS1 Biochemical IC50 (nM): Inactive

## COc1cc(F)c(-c2[nH]c(C)c(C(=O)Nc3cccc(C(F)(F)F)c3)[n+]2[O-])nc1-c1c(C)cc(F)cc1C [Compound 209, 2-(3-fluoro-6-(4-fluoro-2,6-dimethylphenyl)-5-methoxypyridin-2-yl)-5-methyl-4-((3-(trifluoromethyl)phenyl)carbamoyl)-1H-imidazole 3-oxide]
[1]
  IC50: 1 to 30 nM
[2]
  ACSS1 Biochemical IC50 (nM): Inactive

## COCCN(C)C(=O)c1cccc(NC(=O)c2c(C)[nH]c(-c3ccc(OC)c(-c4c(C)cccc4C)c3)[n+]2[O-])c1 [Compound 141, 2-(6-methoxy-2′,6′-dimethyl-[1,1′-biphenyl]-3-yl)-4-((3-((2-methoxyethyl)(methyl)carbamoyl)phenyl)carbamoyl)-5-methyl-1H-imidazole 3-oxide]
[1]
  IC50: > 30 nM
[2]
  ACSS1 Biochemical IC50 (nM): Inactive
